Patent US11926625B2, “HPK1 antagonists and uses thereof” (Nimbus Saturn, Inc., priority 2021, dated 2024)

biological target: T1, HPK1 (Homo sapiens, UniProt Q92918); assay: HPK1 biochemical enzyme assay (microfluidic mobility shift, Caliper); settings: 1.5 nM HPK1 (Invitrogen), 1 mM ATP, 30 min preincubation, 60 min at RT, top concentration 3 μM; read-out: HPK1 1000UMATP caliper IC50
T1 construct: purchased Invitrogen
Experimental: Example 20. HPK1 Biochemical Enzyme Assay
HPK1 biochemical enzyme assay: HPK1 enzyme inhibition was measured using a microfluidic mobility shift assay. Reactions were performed in a 384-well plate, containing 1.5 nM HPK1 (Invitrogen), in assay buffer (Cama Biosciences; pH 7.4). Test compounds were titrated in ten point curves (top final assay concentration 3 μM), and preincubated with enzyme/substrate mix for 30 min prior to initiation of the reaction by addition of ATP (1 mM final concentration) and substrate (1 μM final concentration; Carna Biosciences) diluted in assay buffer supplemented by MgCl2 (final assay concentration of 5 mM). Following 60 min incubation at RT, the reaction was terminated by addition of 60 μl/well termination buffer (Carna Biosciences) and signal determination using a Caliper EZ Reader (Perkin Elmer, UK).

T1 sequence (Q92918 whole entry): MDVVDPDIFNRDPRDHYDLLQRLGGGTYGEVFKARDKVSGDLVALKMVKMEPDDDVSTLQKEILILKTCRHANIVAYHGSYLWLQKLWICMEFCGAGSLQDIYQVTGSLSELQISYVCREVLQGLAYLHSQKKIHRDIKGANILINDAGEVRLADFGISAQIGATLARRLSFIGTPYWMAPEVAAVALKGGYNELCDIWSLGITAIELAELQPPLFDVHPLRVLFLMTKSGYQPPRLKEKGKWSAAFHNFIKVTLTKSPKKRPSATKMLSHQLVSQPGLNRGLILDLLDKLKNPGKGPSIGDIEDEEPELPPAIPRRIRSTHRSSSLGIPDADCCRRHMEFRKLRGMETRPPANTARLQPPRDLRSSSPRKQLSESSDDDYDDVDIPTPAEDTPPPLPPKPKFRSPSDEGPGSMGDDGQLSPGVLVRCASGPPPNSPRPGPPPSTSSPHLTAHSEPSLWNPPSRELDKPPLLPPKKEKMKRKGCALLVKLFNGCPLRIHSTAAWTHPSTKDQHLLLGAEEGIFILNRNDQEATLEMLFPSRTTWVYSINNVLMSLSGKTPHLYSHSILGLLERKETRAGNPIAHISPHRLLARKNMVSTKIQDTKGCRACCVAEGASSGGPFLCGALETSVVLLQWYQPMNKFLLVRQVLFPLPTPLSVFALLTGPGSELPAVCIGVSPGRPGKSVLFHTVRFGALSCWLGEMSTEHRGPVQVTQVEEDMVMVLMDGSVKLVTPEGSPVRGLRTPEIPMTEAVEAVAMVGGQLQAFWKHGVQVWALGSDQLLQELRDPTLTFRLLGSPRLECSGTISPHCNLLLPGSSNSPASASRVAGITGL

Compound	IC50
O=C1NCc2c(-c3cnco3)ncc(Nc3ccc(N4CCNCC4)cn3)c21 [Compound I-18, 4-oxazol-5-yl-7-[(5-piperazin-1-yl-2-pyridyl)amino]-2,3-dihydropyrrolo [3,4-c]pyridin-1-one]	1000 to 5000 nM
Cn1cc(-c2ncc(Nc3ccc(N4CCNCC4)cn3)c3c2CNC3=O)cn1 [Compound I-17, 4-(1-methylpyrazol-4-yl)-7-[(5-piperazin-1-yl-2-pyridyl)amino]-2,3-dihydropyrrolo [3,4-c]pyridin-1-one]	1000 to 5000 nM
CN1CCN(c2ccc(Nc3ccc(-c4ccnc(N(C)C)c4)c4c3C(=O)NC4)nc2)CC1 [Compound I-50]	< 1000 nM
O=C1NCc2c(N3CCOCC3)ncc(Nc3ccc(N4CCNCC4)cn3)c21 [Compound I-16, 4-morpholino-7-[(5-piperazin-1-yl-2-pyridyl)amino]-2,3-dihydropyrrolo [3,4-c]pyridin-1-one]	1000 to 5000 nM
CN1CCN(c2ccc(Nc3ccc(-c4ccnc(C#Cc5ccn(C)n5)c4)c4c3C(=O)NC4)nc2)CC1 [Compound I-67, 4-(2-((1-methyl-1H-pyrazol-3-yl)ethynyl)pyridin-4-yl)-7-((5-(4-methylpiperazin-1-yl)pyridin-2-yl)amino) isoindolin-1-one]	< 1000 nM
O=C1NCc2c(-c3ccncc3)ccc(Nc3ccc(N4CCOCC4)cn3)c21 [Compound I-26, 7-[(5-morpholino-2-pyridyl)amino]-4-(4-pyridyl) isoindolin-1-one]	< 1000 nM
CN1CCN(c2ccc(Nc3ccc(-c4ccncn4)c4c3C(=O)NC4)nc2)CC1 [Compound I-45, 7-[[5-(4-methylpiperazin-1-yl)-2-pyridyl]amino]-4-pyrimidin-4-yl-isoindolin-1-one]	< 1000 nM

Now from value to compound:

IC50	Compound
< 1000 nM	CN1CCN(c2ccc(Nc3cnc(-c4cncn4C)c4c3C(=O)NC4)nc2)CC1 [Compound I-73, 4-(1-methyl-1H-imidazol-5-yl)-7-((5-(4-methylpiperazin-1-yl)pyridin-2-yl)amino)-2,3-dihydro-1H-pyrrolo[3,4-c]pyridin-1-one]
1000 to 5000 nM	Cn1cc(-c2ccc(Nc3ccc(N4CCNCC4)cn3)c3c2CNC3=O)nc1-c1ccccc1 [Compound I-88, 4-(1-methyl-2-phenyl-1H-imidazol-4-yl)-7-((5-(piperazin-1-yl)pyridin-2-yl)amino) isoindolin-1-one]
< 1000 nM	CN1CCN(c2ccc(Nc3ccc(-c4ccnc(C(C)(C)C#N)c4)c4c3C(=O)NC4)nc2)CC1 [Compound I-35, 2-methyl-2-[4-[7-[[5-(4-methylpiperazin-1-yl)-2-pyridyl]amino]-1-oxo-isoindolin-4-yl]-2-pyridyl] propanenitrile]
< 1000 nM	O=C1NCc2c(-c3ccncc3)ncc(Nc3ccc(N4CCNCC4)cn3)c21 [Compound I-1, 7-[(5-piperazin-1-yl-2-pyridyl)amino]-4-(4-pyridyl)-2,3-dihydropyrrolo [3,4-c]pyridin-1-one]
1000 to 5000 nM	CN1CCN(c2ccc(Nc3ccc(-c4ccnc(N5CCOCC5)n4)c4c3C(=O)NC4)nc2)CC1 [Compound I-51, 7-[[5-(4-methylpiperazin-1-yl)-2-pyridyl]amino]-4-(2-morpholinopyrimidin-4-yl)isoindolin-1-one]
< 1000 nM	CNC1CCN(c2ccc(Nc3ccc(-c4ccncc4)c4c3C(=O)NC4)nc2)CC1 [Compound I-53, 7-[[5-[4-(methylamino)-1-piperidyl]-2-pyridyl]amino]-4-(4-pyridyl) isoindolin-1-one]
< 1000 nM	CC#Cc1cc(-c2ccc(Nc3ccc(N4CCN(C)CC4)cn3)c3c2CNC3=O)ccn1 [Compound I-60, 7-((5-(4-methylpiperazin-1-yl)pyridin-2-yl)amino)-4-(2-(prop-1-yn-1-yl)pyridin-4-yl)isoindolin-1-one]
1000 to 5000 nM	CN1CCN(c2ccc(Nc3ccc(-c4ccnc(N5CCC6(CCCO6)CC5)c4)c4c3C(=O)NC4)nc2)CC1 [Compound I-38, 7-[[5-(4-methylpiperazin-1-yl)-2-pyridyl]amino]-4-[2-(1-oxa-8-azaspiro[4. 5]decan-8-yl)-4-pyridyl] isoindolin-1-one]
